From patent US7371776B2, “Methods and compositions for treating cancer” (Mars, Incorporated, priority 2004, dated 2008)

Legend:
Assay type in all cases: cell-based, human
MDA MB-231 cells = test: Crystal violet cellular proliferation assay; details: 100 μg/mL, ten days after treatment
Protocol: (§1) Human breast cancer cell lines MDA MB-231, MDA MB-436, MD MB-468, SKBR-3 and MCF-7 were obtained from the Lombardi Comprehensive Cancer Center (LCC) Tissue Culture Shared Resource. MDA MB-231, MDA MB-436, MD MB-468 and SKBR-3 are p53-mutated estrogen receptor (ER)-negative cells. MDA MB-231 also contains a mutation in the K-ras oncogene. The MCF-7 cell line is ER-positive and non-mutated for p53. The cells were grown in complete media containing DMEM (Gibco-BRL, Gaithersburg, Md.) supplemented with 10% fetal bovine serum (FBS) (Quality Biological, Gaithersburg, Md.). In addition, media for MCF-7 contained non essential amino acids (Gibco-BRL, Gaithersburg, Md.).
(§2) One×10^3 cells per well were seeded in 96 well dishes (Coming Costar, Cambridge, Mass.). Primary cultures of HMECs, A1N4 and 184B5 cells were evaluated at two different cell densities (seeded at 1×10^3 and 2×10^3 per well). After 24 hours of cell attachment, cells in triplicate wells were treated with pentamer at a concentration of 100 μg/mL. The cells on the same plate were treated with corresponding controls: (i) media containing DMSO, and (ii) media with no additions.
(§3) Cells were treated for 1, 2, 3, 6, 8 and 10 days, but in some cases, the samples were collected at days 2, 3, 4, 7 and 10 post-treatment. Each treatment was conducted in triplicate. Samples were collected at each time point as follows: media was removed and 50 μL of crystal violet solution (0.1% of crystal violet in 0.1 M citric acid solution) was added to each well at room temperature and plates were incubated for 15 minutes, followed by washing with deionized water. Plates were dried at room temperature overnight. The following day, plates were destained by adding 100 μL of 0.1 M sodium citrate solution into each well. Plates were incubated for one hour. The optical density (OD) of samples was read at 550 nm on an Ultramark Microplate Imagining System (BioRad, Philadelphia, Pa.). The experiment was repeated twice resulting in an average of nine measurements per sample. Statistical significance was determined using the t test analysis.

MDA MB-436 cells = test: Crystal violet cellular proliferation assay; details: 100 μg/mL, ten days after treatment
Protocol: as §1, §2, §3

MDA MB-468 cells = test: Crystal violet cellular proliferation assay; details: 100 μg/mL, ten days after treatment
Protocol: as §1, §2, §3

MCF-7 cells = test: Crystal violet cellular proliferation assay; details: MCF-7 (wild type p53, ER-positive); 100 μg/mL
Protocol: as §1, §2, §3

SKBR-3 cells = test: Crystal violet cellular proliferation assay; details: 100 μg/mL, ten days after treatment
Protocol: as §1, §2, §3

normal mortal HMECs = test: Crystal violet cellular proliferation assay; details: 100 μg/mL
Text: Immortalized human mammary epithelial cells (HMECs), MCF-10A, 184A1N4 and 184B5, normal, finite-life-span HMECs (1001-8, CC-2551) at passage 8, originally derived from mammoplasty breast tissues, were purchased from Clonetics-BioWhittaker, Inc. (Waskersville, Md.). Cell lines generated by introduction of c-MYC, ErbB2 and RAS oncogene into MCF-10A cells (MCF-10A-ErbB2/Ras cells and MCF-10A-c-Myc) were also used.
Normal mortal HMECs were maintained according to the supplier's instructions in mammary epithelial cell growth medium (CC-3152) (Clonetics) supplemented with 52 μg of bovine pituitary extract per ml, 10 ng/mL of human EGF, 5 μg/mL of insulin, and 0.5 μg/mL of hydrocortisone and were grown in 37° C. incubators with low (0.1 to 0.2%) CO2 settings.
One×10^3 cells per well were seeded in 96 well dishes (Coming Costar, Cambridge, Mass.). Primary cultures of HMECs, A1N4 and 184B5 cells were evaluated at two different cell densities (seeded at 1×10^3 and 2×10^3 per well). […]
Cells were treated for 1, 2, 3, 6, 8 and 10 days, but in some cases, the samples were collected at days 2, 3, 4, 7 and 10 post-treatment. […] The optical density (OD) of samples was read at 550 nm on an Ultramark Microplate Imagining System (BioRad, Philadelphia, Pa.). […] Statistical significance was determined using the t test analysis.

PARP = PARP cleavage in MCF-7 cells; details: 48 hours treatment
Text: Rabbit polyclonal poly (ADP-ribose) polymerase (PARP) (H-250) was obtained from Santa Cruz Biotechnology Inc., (Santa Cruz, Calif.). α-Tubulin antibody was obtained from Neomarkers, Fremont, Calif. All antibodies used for proteomics analysis were obtained from Cell Signaling (Beverly, Mass.), Upstate Biotechnology (Lake Placid, N.Y.), Neomarkers (Fremont, Calif.) and Santa Cruz (Santa Cruz, Calif.) (Table 2). Referring to Table 2, Abs designated as “mouse” were monoclonal Abs, and Abs designated as “rabbit” were polyclonal Abs. The ECL detection reagent was obtained from Amersham (Arlington Heights, Ill.).
To determine whether depolarization of the mitochondrial membrane, induced by pentamer leads to apoptotic cellular death in human breast cancer cells lines, MDA MB-231 and MCF-7 cells were examined for PARP cleavage products. Since PARP is one of the downstream substrates of the caspase cascade, it is an excellent marker of apoptosis [Soldani, C. et al., Apoptosis, 7: 321-328, 2002].

MCF-10A-c-Myc cells = test: Crystal violet cellular proliferation assay; details: 100 μg/mL
Protocol: (§4) The MCF-10A cell line (spontaneously immortalized, non-tumorigenic human mammary epithelial cell line with non-mutated p53) was maintained in F-12/DMEM medium supplemented with 5% horse serum (Gibco), 20 ng/mL EGF (Upstate Biotechnology Incorporated, Lake Placid, N.Y.), 10 μg/mL insulin (Biofluids, Rockville, Md.), and 500 ng/mL hydrocortisone. The same media were used for MCF-10A-ErbB2/Ras cells (Ciardiello, F. et al., Mol Carcinog., 6: 43-52. 1992) and MCF-10A-c-Myc cells (Sheen, J-H. et al., Mol. Cell. Biol., 22: 1819-1833, 2002).
as §2, §3

MCF-10A-ErbB2/Ras cells = test: Crystal violet cellular proliferation assay; details: 100 μg/mL
Protocol: as §4, §2, §3

MCF-10A cells = test: Crystal violet cellular proliferation assay; details: 100 μg/mL
Protocol: as §4, §2, §3

Oc1cc(O)c2c(c1)O[C@H](c1ccc(O)c(O)c1)[C@H](O)[C@H]2c1c(O)cc(O)c2c1O[C@H](c1ccc(O)c(O)c1)[C@H](O)[C@H]2c1c(O)cc(O)c2c1O[C@H](c1ccc(O)c(O)c1)[C@H](O)[C@H]2c1c(O)cc(O)c2c1O[C@H](c1ccc(O)c(O)c1)[C@H](O)[C@H]2c1c(O)cc(O)c2c1O[C@H](c1ccc(O)c(O)c1)[C@H](O)C2 [pentamer, pentameric procyanidin]
growth inhibited, in comparison to DMSO-treated controls (MDA MB-231 cells): 5 fold | growth inhibited, in comparison to DMSO-treated controls (MDA MB-436 cells): 4.1 fold | growth inhibited, in comparison to DMSO-treated controls (MDA MB-468 cells): 4 fold | growth inhibition (MCF-7 cells): 5.6 fold | growth inhibited, in comparison to DMSO-treated controls (SKBR-3 cells): 5.5 fold | growth inhibited, in comparison to DMSO-treated controls (normal mortal HMECs): 1.4 fold | cleaved PARP fragment (PARP): no cleaved PARP fragment was detected | full-length PARP (116 kDa) (PARP): decrease | pentamer-induced growth inhibition (MCF-10A-c-Myc cells): equally resistant | pentamer-induced growth inhibition (MCF-10A-ErbB2/Ras cells): equally resistant | pentamer-induced growth inhibition (MCF-10A cells): equally resistant
